Assay results as given in patent US11306084B2, “Integrin antagonists” (Saint Louis University, priority 2016, dated 2022).
Where a name gives a salt, the structure may show the parent alone.

Assays:
[1] = target: T1, Recombinant human integrin ανβ5 (Homo sapiens, UniProt P06756+P18084); experiment: Solid Phase Receptor Assay (SPRA) for ανβ5 function; type: binding; conditions: for IC50: plate-bound human vitronectin, read-out: αvβ5 SPRA IC50
T1 construct: purchased R&D Systems 2528-AV
Method: D. Solid Phase Receptor Assay (SPRA) for ανβ5 Function
Wells were washed 3 times with 150 μL TBS+ and then 150 μL of blocking buffer (TBS+ with 1% bovine serum albumin, Sigma A7906) was added. The plate was incubated for 1 hr at 37° C. and then washed 3× with TBS+ buffer. […] Compounds were diluted to 20 μM and then 1 μL was added to each well of the plate according to a standard template with each sample repeated in triplicate. After incubation for two hours at room temperature, the plate was washed 3× with 150 μL of TBS+ buffer. To each well, 50 μl of biotinylated anti-αν antibody (R&D Systems, BAF1219) at 0.5 μg/mL in TBS+/0.1% BSA at 0.5 μg/mL were added and the plate covered and incubated for 1 hr at room temperature. After washing the plate 3 with 150 μL of TBS+ buffer, 50 μL of streptavidin-conjugated horseradish peroxidase (R&D Systems, DY998) diluted in TBS+ blocking buffer were added to the wells and the plate incubated for 20 min at room temperature. The plate was washed 3× with TBS+ buffer followed by 50 μL of TMB substrate (Sigma T4444) added to each well in the dark and the plate incubated for 5 min at room temperature. 25 μL of 1.0 M phosphoric acid was added as a stop solution and the plates were read at 450 nm using a Spectramax plate reader.

[2] = target: T2, Recombinant human integrin ανβ1 (Homo sapiens, UniProt P05556+P06756); experiment: Solid Phase Receptor Assay (SPRA) for ανβ1 function; type: binding; conditions: for IC50: plate-bound human fibronectin, read-out: αvβ1 SPRA IC50
T2 construct: purchased R&D Systems 6579-AV
T2 sequence (P06756 31-992 limits assumed): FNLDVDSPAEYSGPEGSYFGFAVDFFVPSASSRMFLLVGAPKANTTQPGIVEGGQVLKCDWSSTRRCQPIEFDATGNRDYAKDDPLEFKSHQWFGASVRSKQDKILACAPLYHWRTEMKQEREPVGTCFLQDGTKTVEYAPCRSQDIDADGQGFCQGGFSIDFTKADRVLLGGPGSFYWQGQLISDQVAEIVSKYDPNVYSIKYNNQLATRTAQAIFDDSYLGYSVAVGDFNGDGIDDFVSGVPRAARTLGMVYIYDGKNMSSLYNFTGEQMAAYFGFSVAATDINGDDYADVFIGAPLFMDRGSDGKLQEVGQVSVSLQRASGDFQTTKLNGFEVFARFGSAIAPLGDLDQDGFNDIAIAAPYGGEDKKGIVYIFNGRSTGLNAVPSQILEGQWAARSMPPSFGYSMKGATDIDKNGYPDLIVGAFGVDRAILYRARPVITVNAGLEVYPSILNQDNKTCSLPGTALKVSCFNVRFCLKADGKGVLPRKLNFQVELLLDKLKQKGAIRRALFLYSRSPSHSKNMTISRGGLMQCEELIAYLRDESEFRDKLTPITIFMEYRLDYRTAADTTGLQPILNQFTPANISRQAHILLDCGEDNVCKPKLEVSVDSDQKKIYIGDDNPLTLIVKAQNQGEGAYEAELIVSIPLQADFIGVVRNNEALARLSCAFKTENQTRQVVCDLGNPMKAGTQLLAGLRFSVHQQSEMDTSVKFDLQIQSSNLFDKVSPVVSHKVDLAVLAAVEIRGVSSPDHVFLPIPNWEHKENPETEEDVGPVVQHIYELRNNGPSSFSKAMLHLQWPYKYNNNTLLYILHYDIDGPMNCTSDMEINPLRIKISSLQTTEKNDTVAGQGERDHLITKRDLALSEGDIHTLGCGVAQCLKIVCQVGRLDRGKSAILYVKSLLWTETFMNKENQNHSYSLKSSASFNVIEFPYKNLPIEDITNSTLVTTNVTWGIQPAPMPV
T2 sequence (P05556 21-728 limits assumed): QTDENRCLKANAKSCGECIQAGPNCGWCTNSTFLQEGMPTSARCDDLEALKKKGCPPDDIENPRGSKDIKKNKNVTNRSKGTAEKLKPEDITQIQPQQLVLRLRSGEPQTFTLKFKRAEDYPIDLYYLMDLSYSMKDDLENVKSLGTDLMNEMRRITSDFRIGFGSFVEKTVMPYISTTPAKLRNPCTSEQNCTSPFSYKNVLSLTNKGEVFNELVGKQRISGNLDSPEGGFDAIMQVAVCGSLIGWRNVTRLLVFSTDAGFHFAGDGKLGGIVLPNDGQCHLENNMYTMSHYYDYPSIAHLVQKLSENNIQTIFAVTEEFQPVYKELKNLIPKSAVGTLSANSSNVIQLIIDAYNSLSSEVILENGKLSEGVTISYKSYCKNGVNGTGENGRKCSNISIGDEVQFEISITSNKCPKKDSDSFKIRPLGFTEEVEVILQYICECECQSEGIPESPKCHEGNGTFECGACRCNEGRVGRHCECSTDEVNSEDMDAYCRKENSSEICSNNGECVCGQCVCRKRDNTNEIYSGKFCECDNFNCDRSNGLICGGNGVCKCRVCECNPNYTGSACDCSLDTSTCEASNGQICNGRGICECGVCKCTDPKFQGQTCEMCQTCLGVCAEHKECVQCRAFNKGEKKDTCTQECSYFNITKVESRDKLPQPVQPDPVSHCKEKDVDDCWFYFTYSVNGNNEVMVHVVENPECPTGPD
Method: B. Solid Phase Receptor Assay (SPRA) for ανβ1 Function
Wells were washed 3 times with 150 μL TBS+ and then 150 μL of blocking buffer (TBS+ with 1% bovine serum albumin, Sigma A7906) was added. The plate was incubated for 1 hr at 37° C. and then washed 3× with TBS+ buffer. […] Compounds were diluted to 20 μM and 1 μL was added to each well of the plate according to a standard template with each sample repeated in triplicate. After incubation for two hours at room temperature, the plate was washed 3 with 150 μL of TBS+ buffer. To each well, 50 μL of biotinylated anti-αν antibody (R&D Systems, BAF1219) at 1 μg/mL in TBS+/0.1% BSA were added and the plate covered and incubated for 1 hr at room temperature. After washing the plate 3× with 150 μL of TBS+ buffer, 50 μL of streptavidin-conjugated horseradish peroxidase (R&D Systems, DY998) diluted in TBS+ blocking buffer were added to the wells and the plate incubated for 20 min at room temperature. The plate was washed 3× with TBS+ buffer followed by 50 μL of TMB substrate (Sigma, T4444) added to each well in the dark and the plate incubated for 25 min at room temperature. 25 μL of 1.0 M phosphoric acid was added as a stop solution and the plates were read at 450 nm using a Spectramax plate reader.

T1 sequence (P06756 31-992 limits assumed): as the sequence (P06756 31-992 limits assumed) above
T1 sequence (P18084 24-719 limits assumed): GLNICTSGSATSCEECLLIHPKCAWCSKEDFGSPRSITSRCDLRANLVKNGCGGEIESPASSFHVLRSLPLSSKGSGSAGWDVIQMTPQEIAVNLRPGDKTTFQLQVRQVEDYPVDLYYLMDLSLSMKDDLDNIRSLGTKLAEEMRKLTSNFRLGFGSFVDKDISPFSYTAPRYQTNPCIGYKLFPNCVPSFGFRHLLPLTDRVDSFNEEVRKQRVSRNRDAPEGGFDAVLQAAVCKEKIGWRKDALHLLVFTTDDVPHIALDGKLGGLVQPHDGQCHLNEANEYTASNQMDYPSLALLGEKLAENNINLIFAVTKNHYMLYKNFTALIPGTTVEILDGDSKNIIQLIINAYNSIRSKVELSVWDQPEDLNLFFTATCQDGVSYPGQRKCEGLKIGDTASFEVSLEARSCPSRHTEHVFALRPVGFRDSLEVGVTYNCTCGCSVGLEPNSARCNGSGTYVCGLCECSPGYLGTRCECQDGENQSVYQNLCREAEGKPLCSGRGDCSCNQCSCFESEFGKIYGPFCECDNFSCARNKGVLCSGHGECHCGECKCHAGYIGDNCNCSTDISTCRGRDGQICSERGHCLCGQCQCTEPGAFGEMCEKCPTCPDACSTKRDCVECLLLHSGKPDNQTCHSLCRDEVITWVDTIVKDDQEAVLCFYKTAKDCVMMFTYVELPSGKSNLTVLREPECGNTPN

Compound	IC50 [1] [nM]	IC50 [2] [nM]	inhibitory activity at ανβ5 (in words) [1]	inhibitory activity at ανβ1 (in words) [2]
Cc1ccc(C(C)(C)C)cc1C(CC(=O)O)Cc1cc(OCCc2ccc3c(n2)NCCC3)n(C)n1 (stereo not drawn) [Example 44, 3-(5-tert-butyl-2-methyl-phenyl)-4-[1-methyl-5-[2-(5,6,7,8-tetrahydro-1,8-naphthyridin-2-yl)ethoxy]pyrazol-3-yl]butanoic Acid Trifluoroacetate]	76	14		
Cn1nc(CC(CC(=O)O)c2cc(Br)cc(C(F)(F)F)c2)cc1OCCc1ccc2c(n1)NCCC2 (stereo not drawn) [Example 10, 3-(3-bromo-5-(trifluoromethyl)phenyl)-4-(1-methyl-5-(2-(5,6,7,8-tetrahydro-1,8-naphthyridin-2-yl)ethoxy)-1H-pyrazol-3-yl)butanoic Acid]	1	17		
COc1ccc(C(C)C)cc1C(CC(=O)O)Cc1cc(OCCc2ccc3c(n2)NCCC3)n(C)n1 (stereo not drawn) [Example 39, 3-(5-isopropyl-2-methoxyphenyl)-4-(1-methyl-5-(2-(5,6,7,8-tetrahydro-1,8-naphthyridin-2-yl)ethoxy)-1H-pyrazol-3-yl)butanoic Acid Trifluoroacetate]	96	3.2		
Cn1nc(CC(CC(=O)O)c2ccc(C#N)c(F)c2)cc1OCCc1ccc2c(n1)NCCC2 (stereo not drawn) [Example 8]	1	12		
COc1ccc(C(=O)O)cc1C(CC(=O)O)Cc1cc(OCCc2ccc3c(n2)NCCC3)n(C)n1 (stereo not drawn) [Example 48, 3-(1-carboxy-3-(1-methyl-5-(2-(5,6,7,8-tetrahydro-1,8-naphthyridin-2-yl)ethoxy)-1H-pyrazol-3-yl)propan-2-yl)-4-methoxybenzoic Acid Trifluoroacetate]	0.7	19		
Cn1nc(CC(CC(=O)O)c2cc(C(C)(C)C)cc(C(C)(C)C)c2)cc1OCCc1ccc2c(n1)NCCC2 (stereo not drawn) [Example 18, 3-(3,5-di-tert-butylphenyl)-4-[1-methyl-5-[2-(5,6,7,8-tetrahydro-1,8-naphthyridin-2-yl)ethoxyl]pyrazol-3-yl]butanoic Acid]	180	1.4		
COc1ccc(C(C)(C)C)cc1C(CC(=O)O)Cc1cc(OCCc2ccc3c(n2)NCCC3)n(C)n1 (stereo not drawn) [Example 32, 3-(5-(tert-butyl)-2-methoxyphenyl)-4-(1-methyl-5-(2-(5,6,7,8-tetrahydro-1,8-naphthyridin-2-yl)ethoxy)-1H-pyrazol-3-yl)butanoic Acid]	280	0.9	low activity	high inhibitory activity
COc1c(C(CC(=O)O)Cc2cc(OCCc3ccc4c(n3)NCCC4)n(C)n2)cccc1C(C)(C)C (stereo not drawn) [Example 33, 3-(3-(tert-butyl)-2-methoxyphenyl)-4-(1-methyl-5-(2-(5,6,7,8-tetrahydro-1,8-naphthyridin-2-yl)ethoxy)-1H-pyrazol-3-yl)butanoic Acid]	3.1	2400		
Cn1nc(CC(CC(=O)O)c2cc(OC(F)(F)F)cc(C(C)(C)C)c2)cc1OCCc1ccc2c(n1)NCCC2 (stereo not drawn) [Example 36, 3-[3-tert-butyl-5-(trifluoromethoxy)phenyl]-4-[1-methyl-5-[2-(5,6,7,8-tetrahydro-1,8-naphthyridin-2-yl)ethoxy]pyrazol-3-yl]butanoic Acid]	1.1	6.5		
COc1ccc([C@H](CC(=O)O)Cc2cc(OCCc3ccc4c(n3)NCCC4)n(C)n2)cc1F [Example 15, (3S)-3-(3-fluoro-4-methoxyphenyl)-4-(1-methyl-5-(2-(5,6,7,8-tetrahydro-1,8-naphthyridin-2-yl)ethoxy)-1H-pyrazol-3-yl)butanoic Acid]	0.3	3.8		
Cn1nc(CC(CC(=O)O)c2ccc(Br)c(F)c2)cc1OCCc1ccc2c(n1)NCCC2 (stereo not drawn) [Example 4, 3-(4-bromo-3-fluorophenyl)-4-(1-methyl-5-(2-(5,6,7,8-tetrahydro-1,8-naphthyridin-2-yl)ethoxy)-1H-pyrazol-3-yl)butanoic Acid]	0.5	5		
Cn1nc(CC(CC(=O)O)c2ccc(F)c(Br)c2)cc1OCCc1ccc2c(n1)NCCC2 (stereo not drawn) [Example 5, 3-(3-bromo-4-fluorophenyl)-4-(1-methyl-5-(2-(5,6,7,8-tetrahydro-1,8-naphthyridin-2-yl)ethoxy)-1H-pyrazol-3-yl)butanoic Acid]	0.4	11		
Cn1nc(CC(CC(=O)O)c2cccc(C#N)c2)cc1OCCc1ccc2c(n1)NCCC2 (stereo not drawn) [Example 9, 3-(3-cyanophenyl)-4-(1-methyl-5-(2-(5,6,7,8-tetrahydro-1,8-naphthyridin-2-yl)ethoxy)-1H-pyrazol-3-yl)butanoic Acid]	0.2	9		
Cn1nc(CC(CC(=O)O)c2cc(F)cc(C(C)(C)C(F)(F)F)c2)cc1OCCc1ccc2c(n1)NCCC2 (stereo not drawn) [Example 24, 3-(3-fluoro-5-(1,1,1-trifluoro-2-methylpropan-2-yl)phenyl)-4-(1-methyl-5-(2-(5,6,7,8-tetrahydro-1,8-naphthyridin-2-yl)ethoxy)-1H-pyrazol-3-yl)butanoic Acid]	0.2	4.4		
COCC1(c2cc(F)cc(C(CC(=O)O)Cc3cc(OCCc4ccc5c(n4)NCCC5)n(C)n3)c2)CCOCC1 (stereo not drawn) [Example 30, 3-(3-fluoro-5-(4-(methoxymethyl)tetrahydro-2H-pyran-4-yl)phenyl)-4-(1-methyl-5-(2-(5,6,7,8-tetrahydro-1,8-naphthyridin-2-yl)ethoxy)-1H-pyrazol-3-yl)butanoic Acid]	0.5	6.6		
Cn1nc(CC(CC(=O)O)c2cc(F)cc(C3(C(F)F)CC3)c2)cc1OCCc1ccc2c(n1)NCCC2 (stereo not drawn) [Example 21, 3-(3-(1-(difluoromethyl)cyclopropyl)-5-fluorophenyl)-4-(1-methyl-5-(2-(5,6,7,8-tetrahydro-1,8-naphthyridin-2-yl)ethoxy)-1H-pyrazol-3-yl)butanoic Acid]	0.2	3.7		
Cn1nc(CC(CC(=O)O)c2ccc(F)c(C#N)c2)cc1OCCc1ccc2c(n1)NCCC2 (stereo not drawn) [Example 7, 3-(3-cyano-4-fluorophenyl)-4-(1-methyl-5-(2-(5,6,7,8-tetrahydro-1,8-naphthyridin-2-yl)ethoxy)-1H-pyrazol-3-yl)butanoic Acid]	0.6	7		
Cn1nc(CC(CC(=O)O)c2cc(Cl)cc(C(C)(C)C(F)(F)F)c2)cc1OCCc1ccc2c(n1)NCCC2 (stereo not drawn) [Example 27, 3-(3-chloro-5-(1,1,1-trifluoro-2-methylpropan-2-yl)phenyl)-4-(1-methyl-5-(2-(5,6,7,8-tetrahydro-1,8-naphthyridin-2-yl)ethoxy)-1H-pyrazol-3-yl)butanoic Acid]	0.5	4.4		
CC(C)c1cc(Br)cc(C(CC(=O)O)Cc2cc(OCCc3ccc4c(n3)NCCC4)n(C)n2)c1 (stereo not drawn) [Example 40, 3-(3-bromo-5-isopropyl-phenyl)-4-[1-methyl-5-[2-(5,6,7,8-tetrahydro-1,8-naphthyridin-2-yl)ethoxyl]pyrazol-3-yl]butanoic acid trifluoroacetate]	1.1	6.3		
Cn1nc(CC(CC(=O)O)c2cc(C(F)(F)F)cc(C3(C(F)F)CC3)c2)cc1OCCc1ccc2c(n1)NCCC2 (stereo not drawn) [Example 23, 3-(3-(1-(difluoromethyl)cyclopropyl)-5-(trifluoromethyl)phenyl)-4-(1-methyl-5-(2-(5,6,7,8-tetrahydro-1,8-naphthyridin-2-yl)ethoxy)-1H-pyrazol-3-yl)butanoic Acid]	6.5	3.8		
